Laboratory results as given in patent publication US20250197382A1, “KIF18A INHIBITOR” (WIGEN BIOMEDICINE TECHNOLOGY (SHANGHAI) CO., LTD., priority 2022, published 2025).

Legend:
[1] = test system: HT-29 cells; test: In vitro anti-proliferative activity against HT-29 cells (intracellular ATP content, 72 h); format: cell-based; conditions: Homo sapiens, 72 h after dosing
Method: Biological Example 2. In Vitro Anti-Proliferative Activity of Compounds of the Present Invention Against HT-29 Cells
(§1) HT-29 cells were seeded on a 384-well plate at 3000 cells/well. After overnight adherence culture, DMSO or the compounds serially diluted in a 1:5 ratio from 5 μM were added. The viability was assessed 72 h after dosing by measuring the intracellular ATP content. The inhibition percentages of viable cells by the compounds were calculated by comparing with the DMSO group, and the IC so values were also calculated.

[2] = test system: HCT116 cells; test: In vitro anti-proliferative activity against HCT116 cells (intracellular ATP content, 72 h); format: cell-based; conditions: Homo sapiens, HCT-116, 72 h after dosing
Method: Biological Example 3. In Vitro Anti-Proliferative Activity of Compounds of the Present Invention Against HCT116 Cells
as §1, with “HCT116” for “HT-29”, “IC50” for “IC so”

[3] = target: Recombinant human KIF18A (1-467His-tagged) protein (Homo sapiens (Human), UniProt Q8NI77); test: KIF18A enzyme assay (microtubule-stimulated ATPase activity, ADP-Glo); format: biochemical; conditions: 30 nM KIF18A, ATP 75 μM, read-out: inhibitory activity against KIF18A IC50
In short: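 Baculovirus-expressed human KIF18A (1-467, His-tagged; 30 nM) preincubated 15 min at room temperature with compound (22-point 2-fold series) in pH 7.5 Tris buffer containing 30 μg/mL pig microtubules and 1 μM paclitaxel.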

Recombinant human KIF18A (1-467His-tagged) protein, sequence (Q8NI77 1-467): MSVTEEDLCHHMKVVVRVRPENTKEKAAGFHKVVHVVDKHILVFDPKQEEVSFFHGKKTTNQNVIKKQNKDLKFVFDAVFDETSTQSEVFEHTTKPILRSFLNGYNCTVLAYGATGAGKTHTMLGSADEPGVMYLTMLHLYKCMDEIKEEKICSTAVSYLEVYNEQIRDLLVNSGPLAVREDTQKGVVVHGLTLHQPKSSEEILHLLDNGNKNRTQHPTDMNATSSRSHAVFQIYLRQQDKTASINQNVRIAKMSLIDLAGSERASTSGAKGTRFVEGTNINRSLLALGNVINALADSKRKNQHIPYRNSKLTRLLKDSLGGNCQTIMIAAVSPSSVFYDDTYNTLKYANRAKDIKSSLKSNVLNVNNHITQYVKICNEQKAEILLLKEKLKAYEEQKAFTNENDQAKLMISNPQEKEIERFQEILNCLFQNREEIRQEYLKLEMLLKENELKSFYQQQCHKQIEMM
Recombinant human KIF18A (1-467His-tagged) protein, sequence (P02550 whole entry partner): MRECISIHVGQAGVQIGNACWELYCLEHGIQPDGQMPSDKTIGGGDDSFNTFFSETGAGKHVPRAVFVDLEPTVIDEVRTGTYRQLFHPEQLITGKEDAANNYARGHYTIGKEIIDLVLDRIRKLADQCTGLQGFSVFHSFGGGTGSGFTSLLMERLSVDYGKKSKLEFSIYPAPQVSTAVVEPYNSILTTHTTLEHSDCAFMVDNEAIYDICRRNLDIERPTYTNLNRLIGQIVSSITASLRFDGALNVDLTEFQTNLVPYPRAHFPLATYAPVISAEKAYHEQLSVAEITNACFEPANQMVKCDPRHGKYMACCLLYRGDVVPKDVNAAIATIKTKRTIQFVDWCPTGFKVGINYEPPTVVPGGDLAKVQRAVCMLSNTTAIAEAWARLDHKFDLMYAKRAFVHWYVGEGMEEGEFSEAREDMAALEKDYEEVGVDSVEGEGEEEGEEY
Recombinant human KIF18A (1-467His-tagged) protein, sequence (P02554 whole entry partner): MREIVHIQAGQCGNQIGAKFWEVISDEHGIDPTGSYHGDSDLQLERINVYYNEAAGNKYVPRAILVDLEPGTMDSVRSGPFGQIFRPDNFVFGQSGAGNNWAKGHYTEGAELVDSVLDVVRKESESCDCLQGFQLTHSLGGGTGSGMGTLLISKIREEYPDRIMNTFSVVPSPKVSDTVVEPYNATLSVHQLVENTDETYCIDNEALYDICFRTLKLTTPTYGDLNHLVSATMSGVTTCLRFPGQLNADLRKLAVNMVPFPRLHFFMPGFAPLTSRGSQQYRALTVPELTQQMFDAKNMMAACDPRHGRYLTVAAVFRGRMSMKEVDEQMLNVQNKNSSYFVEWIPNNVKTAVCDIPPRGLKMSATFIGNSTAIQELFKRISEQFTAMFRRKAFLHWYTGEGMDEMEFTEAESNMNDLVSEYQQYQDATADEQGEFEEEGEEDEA

SMILES	IC50 [1]	IC50 [2]	IC50 [3]
Cc1cc(NC(=O)c2ccc(NS(=O)(=O)CCO)cc2N2CCC3(CC2)CC3)nc(N2CCC(F)(F)CC2)n1 [AMG650, reference compound]	89 nM	> 10000 nM	–
O=C(Nc1cc2c(c(N3CCC(F)(F)CC3)c1)OCC2)c1ccc(NS(=O)(=O)CCO)cc1N1CCC2(CC1)CC2 [Compound 1]	9 nM	> 10000 nM	≤ 100 nM
C[C@@H]1CN(c2cc(NC(=O)c3ccc(NS(=O)(=O)CCO)cc3N3CCC4(CC3)CC4)cc3c2OCC3)CCO1 [Compound 2]	–	> 10000 nM	≤ 100 nM
C[C@H]1CN(c2cc(NC(=O)c3ccc(NS(=O)(=O)CCO)cc3N3CCC4(CC3)CC4)cc3c2OCC3)CCO1 [Compound 3]	–	> 10000 nM	≤ 100 nM
O=C(Nc1cc2c(c(N3CC(F)(F)C3)c1)OCC2)c1ccc(NS(=O)(=O)CCO)cc1N1CCC2(CC1)CC2 [Compound 4]	63 nM	> 10000 nM	≤ 100 nM
O=C(Nc1ccc(NS(=O)(=O)CCO)cc1N1CCC2(CC1)CC2)c1cc2c(c(OCCC(F)(F)F)c1)OCC2 [Compound 5]	88 nM	> 10000 nM	–
O=C(Nc1cc2c(c(N3CCC4(CC4)C3)c1)OCC2)c1ccc(NS(=O)(=O)CCO)cc1N1CCC2(CC1)CC2 [Compound 6]	–	> 10000 nM	≤ 100 nM
O=C(Nc1cc2c(c(OC3CCC3)c1)OCC2)c1ccc(NS(=O)(=O)CCO)cc1N1CCC2(CC1)CC2 [Compound 7]	73 nM	> 10000 nM	≤ 100 nM
O=C(Nc1ccc(NS(=O)(=O)CCO)cc1N1CCC2(CC1)CC2)c1cc2c(c(N3CCC(F)(F)CC3)c1)OCC2 [Compound 33]	52 nM	> 10000 nM	≤ 100 nM
O=C(Nc1ccc(S(=O)(=O)NCCO)cc1N1CCC2(CC1)CC2)c1cc2c(c(N3CCC(F)(F)CC3)c1)OCC2 [Compound 49]	61 nM	> 10000 nM	≤ 100 nM
O=C(Nc1cc2c(c(N3CCC(F)(F)CC3)n1)OCC2)c1ccc(NS(=O)(=O)CCO)cc1N1CCC2(CC1)CC2 [Compound 65]	8 nM	> 10000 nM	≤ 100 nM
C[C@@H]1CN(c2nc(NC(=O)c3ccc(NS(=O)(=O)CCO)cc3N3CCC4(CC3)CC4)cc3c2OCC3)CCO1 [Compound 66]	85 nM	> 10000 nM	≤ 100 nM
C[C@H]1CN(c2nc(NC(=O)c3ccc(NS(=O)(=O)CCO)cc3N3CCC4(CC3)CC4)cc3c2OCC3)CCO1 [Compound 67]	–	> 10000 nM	≤ 100 nM
O=C(Nc1cc2c(c(N3CC(F)(F)C3)n1)OCC2)c1ccc(NS(=O)(=O)CCO)cc1N1CCC2(CC1)CC2 [Compound 68]	51 nM	> 10000 nM	≤ 100 nM
O=C(Nc1cc2c(c(OCCC(F)(F)F)n1)OCC2)c1ccc(NS(=O)(=O)CCO)cc1N1CCC2(CC1)CC2 [Compound 69]	71 nM	> 10000 nM	≤ 100 nM
O=C(Nc1cc2c(c(N3CCC4(CC4)C3)n1)OCC2)c1ccc(NS(=O)(=O)CCO)cc1N1CCC2(CC1)CC2 [Compound 70]	–	> 10000 nM	≤ 100 nM
Cn1ccc2cc(NC(=O)c3ccc(NS(=O)(=O)CCO)cc3N3CCC4(CC3)CC4)cc(N3CCC(F)(F)CC3)c21 [Compound 385]	–	> 10000 nM	≤ 100 nM
C[C@H](CO)NS(=O)(=O)c1ccc(NC(=O)c2cc3ccn(C)c3c(N3CCC(F)(F)CC3)n2)c(N2CCC3(CC2)CC3)c1 [Compound 510]	–	–	≤ 100 nM
C[C@@H]1CN(c2nc(C(=O)Nc3ccc(S(=O)(=O)N[C@@H](C)CO)cc3N3CCC4(CC3)CC4)cc3ccn(C)c23)CCO1 [Compound 511]	–	–	≤ 100 nM
C[C@H](CO)NS(=O)(=O)c1ccc(NC(=O)c2cc3ccn(C)c3c(N3CCO[C@H](C)C3)n2)c(N2CCC3(CC2)CC3)c1 [Compound 512]	–	–	≤ 100 nM
O=C(Nc1cc2ncoc2c(N2CCC(F)(F)CC2)n1)c1ccc(NS(=O)(=O)CCO)cc1N1CCC2(CC1)CC2 [Compound 514]	–	–	≤ 100 nM
O=C(Nc1cc(N2CCC(F)(F)CC2)c2scnc2c1)c1ccc(NS(=O)(=O)CCO)cc1N1CCC2(CC1)CC2 [Compound 515]	–	–	≤ 100 nM
O=C(Nc1cc2ncsc2c(N2CCC(F)(F)CC2)n1)c1ccc(NS(=O)(=O)CCO)cc1N1CCC2(CC1)CC2 [Compound 516]	–	–	≤ 100 nM
O=C(Nc1cc(N2CCC(F)(F)CC2)c2ncoc2c1)c1ccc(NS(=O)(=O)CCO)cc1N1CCC2(CC1)CC2 [Compound 517]	–	–	≤ 100 nM
O=C(Nc1cc2ocnc2c(N2CCC(F)(F)CC2)n1)c1ccc(NS(=O)(=O)CCO)cc1N1CCC2(CC1)CC2 [Compound 518]	–	–	≤ 100 nM
O=C(Nc1cc(N2CCC(F)(F)CC2)c2ncsc2c1)c1ccc(NS(=O)(=O)CCO)cc1N1CCC2(CC1)CC2 [Compound 519]	–	–	≤ 100 nM
O=C(Nc1cc2scnc2c(N2CCC(F)(F)CC2)n1)c1ccc(NS(=O)(=O)CCO)cc1N1CCC2(CC1)CC2 [Compound 520]	–	–	≤ 100 nM

SMILES	IC50 [1]	IC50 [2]	IC50 [3]
O=C(Nc1cc(N2CCC(F)(F)CC2)c2[nH]ccc2c1)c1ccc(NS(=O)(=O)CCO)cc1N1CCC2(CC1)CC2 [Compound 521]	–	–	≤ 100 nM
O=C(Nc1cc2c(c(N3CCC(F)(F)CC3)c1)NCC2)c1ccc(NS(=O)(=O)CCO)cc1N1CCC2(CC1)CC2 [Compound 523]	–	–	≤ 100 nM
O=C(Nc1cc2c(c(N3CCC(F)(F)CC3)n1)NCC2)c1ccc(NS(=O)(=O)CCO)cc1N1CCC2(CC1)CC2 [Compound 524]	–	–	≤ 100 nM
O=C(Nc1cc(N2CCC(F)(F)CC2)c2[nH]cnc2c1)c1ccc(NS(=O)(=O)CCO)cc1N1CCC2(CC1)CC2 [Compound 525]	–	–	≤ 100 nM
O=C(Nc1cc2nc[nH]c2c(N2CCC(F)(F)CC2)n1)c1ccc(NS(=O)(=O)CCO)cc1N1CCC2(CC1)CC2 [Compound 526]	–	–	≤ 100 nM
Cn1cnc2cc(NC(=O)c3ccc(NS(=O)(=O)CCO)cc3N3CCC4(CC3)CC4)cc(N3CCC(F)(F)CC3)c21 [Compound 528]	–	–	≤ 100 nM
O=C(Nc1cc(N2CCC(F)(F)CC2)c2ccccc2c1)c1ccc(NS(=O)(=O)CCO)cc1N1CCC2(CC1)CC2 [Compound 529]	–	–	100 to 500 nM
O=C(Nc1cc2c(c(N3CCC(F)(F)CC3)c1)CCCC2)c1ccc(NS(=O)(=O)CCO)cc1N1CCC2(CC1)CC2 [Compound 531]	–	–	100 to 500 nM
O=C(Nc1cc2c(c(N3CCC(F)(F)CC3)c1)CCC2)c1ccc(NS(=O)(=O)CCO)cc1N1CCC2(CC1)CC2 [Compound 532]	–	–	≤ 100 nM
O=C(Nc1cc2ccnn2c(N2CCC(F)(F)CC2)n1)c1ccc(NS(=O)(=O)CCO)cc1N1CCC2(CC1)CC2 [Compound 534]	–	–	≤ 100 nM
O=C(Nc1cc(N2CCC(F)(F)CC2)c2nccn2c1)c1ccc(NS(=O)(=O)CCO)cc1N1CCC2(CC1)CC2 [Compound 535]	–	–	≤ 100 nM
O=C(Nc1cn2ccnc2c(N2CCC(F)(F)CC2)n1)c1ccc(NS(=O)(=O)CCO)cc1N1CCC2(CC1)CC2 [Compound 536]	–	–	≤ 100 nM
O=C(Nc1cc2c(c(N3CCC(F)(F)CC3)n1)OCO2)c1ccc(NS(=O)(=O)CCO)cc1N1CCC2(CC1)CC2 [Compound 538]	–	–	≤ 100 nM
O=C(Nc1cc2c(c(N3CCC(F)(F)CC3)n1)OCCC2)c1ccc(NS(=O)(=O)CCO)cc1N1CCC2(CC1)CC2 [Compound 540]	–	–	≤ 100 nM
O=C(Nc1cc2c(c(N3CCC(F)(F)CC3)c1)NCCC2)c1ccc(NS(=O)(=O)CCO)cc1N1CCC2(CC1)CC2 [Compound 541]	–	–	≤ 100 nM
O=C(Nc1cc2c(c(N3CCC(F)(F)CC3)n1)NCCC2)c1ccc(NS(=O)(=O)CCO)cc1N1CCC2(CC1)CC2 [Compound 542]	–	–	≤ 100 nM
O=C(Nc1cc2c(c(N3CCC(F)(F)CC3)c1)OCCO2)c1ccc(NS(=O)(=O)CCO)cc1N1CCC2(CC1)CC2 [Compound 543]	–	–	≤ 100 nM
O=C(Nc1cc2c(c(N3CCC(F)(F)CC3)n1)OCCO2)c1ccc(NS(=O)(=O)CCO)cc1N1CCC2(CC1)CC2 [Compound 544]	–	–	≤ 100 nM
O=C(Nc1ccc(NS(=O)(=O)CCO)cc1N1CCC2(CC1)CC2)c1cc2c(c(N3CCC(F)(F)CC3)c1)OCCC2 [Compound 545]	–	–	≤ 100 nM
O=C(Nc1cc2c(c(N3CCC(F)(F)CC3)c1)OCCC2)c1ccc(S(=O)(=O)NCCO)cc1N1CCC2(CC1)CC2 [Compound 546]	–	–	≤ 100 nM
O=C(Nc1ccc(S(=O)(=O)NCCO)cc1N1CCC2(CC1)CC2)c1cc2c(c(N3CCC(F)(F)CC3)c1)OCCC2 [Compound 547]	–	–	≤ 100 nM
O=C(Nc1ccc(NS(=O)(=O)CCO)cc1N1CCC2(CC1)CC2)c1cc2c(c(N3CCC(F)(F)CC3)n1)OCCC2 [Compound 548]	–	–	≤ 100 nM
O=C(Nc1cc2c(c(N3CCC(F)(F)CC3)n1)OCCC2)c1ccc(S(=O)(=O)NCCO)cc1N1CCC2(CC1)CC2 [Compound 549]	–	–	≤ 100 nM
O=C(Nc1ccc(S(=O)(=O)NCCO)cc1N1CCC2(CC1)CC2)c1cc2c(c(N3CCC(F)(F)CC3)n1)OCCC2 [Compound 550]	–	–	≤ 100 nM
O=C(Nc1cc2cccnc2c(N2CCC(F)(F)CC2)n1)c1ccc(NS(=O)(=O)CCO)cc1N1CCC2(CC1)CC2 [Compound 583]	38 nM	> 10000 nM	–
O=C(Nc1ccc(NS(=O)(=O)CCO)cc1N1CCC2(CC1)CC2)c1cc2cccnc2c(N2CCC(F)(F)CC2)n1 [Compound 584]	70 nM	> 10000 nM	–
